From article PMC6789573, “Phosphonic Acid Analogues of Phenylglycine as Inhibitors of Aminopeptidases: Comparison of Porcine Aminopeptidase N, Bovine Leucine Aminopeptidase, Tomato Acidic Leucine Aminopeptidase and Aminopeptidase from Barley Seeds” (Pharmaceuticals, 2019)
Values belong to the compound of their own block, whether it stands above or below them.

Columns and labels:
[1] = biological target: T1, porcine aminopeptidase N (pAPN) (Sus scrofa, UniProt P15145); assay: Inhibition of porcine kidney aminopeptidase N (L-Leu-pNa hydrolysis, absorbance at 405 nm); format: biochemical; conditions: for Ki / pAPN Ki + SD: racemic compounds, apparent Ki ± SD, 50 mM potassium phosphate pH 7.2, 37 °C, substrate L-Leu-pNa, in = inactive at a concentration of 1 mM; for inhibitory action: pAPN
T1 construct: Microsomal leucine aminopeptidase (APN, EC 3.4.11.2) from porcine kidney was purchased from Sigma Aldrich; purchased Sigma Aldrich; host or cells: porcine kidney (tissue-derived)
T1 sequence (P15145 1-963): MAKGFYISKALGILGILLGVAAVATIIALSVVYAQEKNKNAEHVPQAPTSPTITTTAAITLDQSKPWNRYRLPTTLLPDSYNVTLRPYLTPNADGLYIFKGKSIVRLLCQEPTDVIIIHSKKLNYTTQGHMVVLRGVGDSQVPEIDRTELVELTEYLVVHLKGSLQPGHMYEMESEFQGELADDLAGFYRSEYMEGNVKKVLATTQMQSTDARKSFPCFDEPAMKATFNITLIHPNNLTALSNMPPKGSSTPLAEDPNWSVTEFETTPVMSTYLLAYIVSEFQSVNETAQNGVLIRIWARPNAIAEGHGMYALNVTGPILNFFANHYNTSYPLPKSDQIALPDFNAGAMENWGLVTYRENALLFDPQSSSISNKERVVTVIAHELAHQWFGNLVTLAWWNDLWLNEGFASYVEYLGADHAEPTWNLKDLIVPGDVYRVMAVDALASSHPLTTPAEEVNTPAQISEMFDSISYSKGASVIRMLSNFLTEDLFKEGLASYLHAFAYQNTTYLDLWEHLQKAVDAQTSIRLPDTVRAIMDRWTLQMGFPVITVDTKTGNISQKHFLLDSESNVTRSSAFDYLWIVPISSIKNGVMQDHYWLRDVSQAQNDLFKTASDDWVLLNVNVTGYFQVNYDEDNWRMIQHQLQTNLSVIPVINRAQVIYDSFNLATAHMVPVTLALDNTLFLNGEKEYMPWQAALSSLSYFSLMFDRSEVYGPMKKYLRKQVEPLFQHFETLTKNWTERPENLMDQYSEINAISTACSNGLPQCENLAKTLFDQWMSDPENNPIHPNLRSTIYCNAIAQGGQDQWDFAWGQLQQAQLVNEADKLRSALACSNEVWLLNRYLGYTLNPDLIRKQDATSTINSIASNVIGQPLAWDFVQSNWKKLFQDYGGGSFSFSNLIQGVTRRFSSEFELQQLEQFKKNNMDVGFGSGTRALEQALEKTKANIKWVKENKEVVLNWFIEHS
Description: Microsomal leucine aminopeptidase (APN, EC 3.4.11.2) from porcine kidney was purchased from Sigma Aldrich. It was applied directly in kinetic measurements after dissolving in 50 mM potassium phosphate (pH 7.2). Such a solution should be stored in 4 °C for no longer than 2 days.
(§1) The activity of pAPN (KM = 0.52 mM) was determined as described in the literature. The activity of aminopeptidase from barley seeds was determined at 37 °C in 50 mM Tris-HCl, pH 8.0, containing 50 mM NaCl and 10 mM β-mercaptoethanol using substrate L-leucine-p-nitroanilidine (L-Leu-pNa) dissolved in DMSO. The kinetics parameters of the purified enzyme were measured for L-Leu-pNa at ten final concentrations (ranging from 0.1 to 1.0 mM) and being repeated two times. The KM value of barley seeds aminopeptidase was determined by using the Lineweaver–Burk weighted regression method (see Table S7 and Plot 1 in the Supplementary Information).
The assay mixture of the pAPN, totaling 1.01 mL, contained 50 mM potassium phosphate buffer (pH 7.2), 0.025 mL of the substrate L-Leu-pNa dissolved in DMSO (used in 0.4–0.1 mM range of the final concentration), 0.05 mL of the potential inhibitor in reaction buffer (in a concentration dependent on the potency of the compound), and 0.01 mL of the enzyme solution (4µg/mL final concentration).
(§2) The progress of the enzymatic reaction for both enzymes was measured at 37 °C for 10 min and was monitored spectrophotometrically (UV-VIS Spectrophotometer, JASCO V-730) by following the change in absorbance at 405 nm (formation of p-nitroaniline). The extinction coefficient for pNa was 9620 M^−1cm^−1.
(§3) Inhibition constants were determined considering four substrate concentrations and five concentrations of each inhibitor, with each measurement being repeated at least twice.
(§4) The rate of enzymatic reaction was studied following the reaction progress (changes in absorbance of L-Leu-pNa over time). Kinetics constants, namely Ki and IC50, and the type of the inhibition were determined using Lineweaver–Burk, Dixon, and Hanes–Wolf procedures. For each parameter, relative errors were calculated.

[2] = biological target: aminopeptidase from barley seeds; assay: Inhibition of aminopeptidase from barley seeds (L-Leu-pNa hydrolysis, absorbance at 405 nm); format: biochemical, barley (Hordeum vulgare L.); conditions: for Ki / Barley Seed AP Ki + SD: racemic compounds, apparent Ki ± SD, 50 mM Tris-HCl pH 8.0, 37 °C, substrate L-Leu-pNa, in = inactive at a concentration of 1 mM; for Ki: read-out: Barley Seed AP Ki + SD; for inhibitory action: barley enzyme
Description: Aminopeptidase from barley seeds (Hordeum vulgare L.) was isolated and purified based on the procedure described previously. The following steps were used: (i) ammonium sulfate precipitation, (ii) gel chromatography (Sephadex G-25, Sephacryl HR 300), followed by (iii) ion chromatography (DEAE—Sepharose). The molecular mass of the extracted enzyme was ~58 kDa. Because of the low stability of the concentrated enzyme solution, it was prepared directly before each kinetic study.
as §1
The assay mixture of the aminopeptidase from barley seeds, totaling 1.095 mL, contained 50 mM Tris-HCl buffer (pH 8.0) with 50 mM NaCl and 10 mM β-mercaptoethanol, 0.025 mL of the substrate L-Leu-pNa dissolved in DMSO (used in 0.4–0.1 mM range of the final concentration), 0.05 mL of varying concentrations of the potential inhibitor (dependent on the potency of the compound), and 0.02 mL enzyme (0.030 mg of protein).
as §2, §3, §4
The progress of the enzymatic reactions was monitored spectrophotometrically (UV-VIS Spectrophotometer JASCO V-730) by following the change in absorbance at 405 nm (formation of p-nitroanilide). The extinction coefficient for L- […]
The kinetic parameters (KM and Vmax) for aminopeptidase from barley seeds were determined by using the Lineweaver–Burk (L-B) weighted regression method. The measured KM value was 0.21 mM ± 0.14 and was used to determine the inhibitory constants of the all evaluated inhibitors.
Table S7. The kinetic parameters characterizing activity of the isolated aminopeptidase from barley seeds. […]
Lineweaver-Burk regression
Plot S1. Graphical determination of the KM value for aminopeptidase from barley seeds by using Lineweaver-Burk: unweighted (blue line) and weighted (red line) regression method.

SMILES: NC(c1ccccc1F)P(=O)(O)O (centres unmarked) [Compound 1]
Ki [1]: 232 ± 22 µM

SMILES: NC(c1ccc(F)c(Cl)c1)P(=O)(O)O (centres unmarked) [Compound 7]
Ki [2]: 62.1 ± 2.3 µM

inhibitory action [2]: practically no inhibitory action | Barley Seed AP Ki + SD [2]: in ^2 | inhibitory action [1]: practically no inhibitory action | pAPN Ki + SD [1]: in ^2
SMILES: NC(c1c(F)c(F)c(F)c(F)c1F)P(=O)(O)O (centres unmarked) [Compound 13]

SMILES: NC(c1cccc(F)c1)P(=O)(O)O (centres unmarked) [Compound 2]
Ki [2]: 311 ± 27 µM | Ki [1]: 122 ± 10 µM

inhibitory action [2]: practically no inhibitory action | Barley Seed AP Ki + SD [2]: in ^2 | inhibitory action [1]: practically no inhibitory action | pAPN Ki + SD [1]: in ^2
SMILES: NC(c1ccc(C(F)(F)F)cc1F)P(=O)(O)O (centres unmarked) [Compound 12]

Ki [2]: 686 ± 70 µM | Ki [1]: 56.3 ± 2.2 µM
SMILES: NC(c1ccc(C(F)(F)F)cc1)P(=O)(O)O (centres unmarked) [Compound 10]

SMILES: NC(c1ccc(F)c(F)c1)P(=O)(O)O (centres unmarked) [Compound 5]
Ki [2]: 549 ± 54 µM

Barley Seed AP Ki + SD [2]: in ^2 | pAPN Ki + SD [1]: in ^2
SMILES: NC(c1c(F)cc(F)cc1F)P(=O)(O)O (centres unmarked) [Compound 6]

Ki [2]: 1030 ± 73 µM | Ki [1]: 164 ± 7.7 µM
SMILES: NC(c1cc(F)cc(C(F)(F)F)c1)P(=O)(O)O (centres unmarked) [Compound 11]

SMILES: NC(c1ccc(Cl)c(F)c1)P(=O)(O)O (centres unmarked) [Compound 8]
Ki [2]: 103 ± 10 µM

SMILES: CC(C)C[C@H](N)C(=O)Nc1ccc([N+](=O)[O-])cc1 [L-Leu-pNa, L-leucine-p-nitroanilidine, reference compound]
Km ([2]; substrate of barley seed aminopeptidase, Lineweaver-Burk weighted regression, 37 °C, pH 8.0): 210 µM | Km ([1]; substrate of pAPN): 520 µM

SMILES: NC(c1ccc(O)cc1F)P(=O)(O)O (centres unmarked) [Compound 14]
Barley Seed AP Ki + SD [2]: in ^2

SMILES: NC(c1ccc(Cl)cc1F)P(=O)(O)O (centres unmarked) [Compound 9]
Ki [2]: 818 ± 43 µM

SMILES: NC(c1ccc(F)cc1)P(=O)(O)O (centres unmarked) [Compound 3]
Ki [2]: 1100 ± 57 µM

SMILES: NC(c1ccc(F)cc1F)P(=O)(O)O (centres unmarked) [Compound 4]
Ki [2]: 1420 ± 83 µM
